Laboratory results as given in US20260285846A1, “REV-ERB AGONISTS FOR TH17-MEDIATED INFLAMMATORY DISORDERS” (UNIVERSITY OF FLORID RESEARCH FOUNDATION, iNCORPORATED, priority 2021, published 2026).

These molecules were tested against REV-ERBα LBD (Homo sapiens, UniProt P20393, DEL324-422) (assay: biochemical). Details: FRET assay; 6xHistag-REV-ERBα LBD with FITC-labeled SMRT corepressor peptide; read-out: REVERBα (Agonism of REV-ERBα, EC50).
Method: TR-FRET corepressor interaction assay. The time-resolved fluorescence resonance energy transfer (TR-FRET) assay was performed in black low-volume 384-well plates (Greiner). Each well contained 4 nM 6×Histag-REV-ERBα LBD (human; residues 281-614 A324-422) or 6×Histag-REV-ERBα LBD (human; residues 381-579) protein expressed in and purified from Escherichia coli using nickel affinity and size exclusion chromatography; 1 nM LanthaScreen Elite Tb-anti-HIS Antibody (Thermo Fisher Scientific); and 400 nM FITC-labeled peptide derived from the SMRT corepressor ([…]) containing a N-terminal FITC label with a six-carbon linker (Ahx) and an amidated C-terminus for stability (synthesized by LifeTein) in TR-FRET buffer (20 mM potassium phosphate, pH 7.4, 50 mM potassium chloride, 1 mM dithiothreitol, and 0.005% Tween-20). Ligand stocks were prepared via serial dilution in DMSO, added to wells in triplicate, and plates were incubated at 4° C. for 2 h and read using a BioTek Synergy Neo multimode plate reader. The Tb donor was excited at 340 nm; its fluorescence emission was monitored at 495 nm, and the acceptor FITC emission was measured at 520 nm; and the TR-FRET ratio was calculated as the signal at 520 nm divided by the signal at 495 nm. Data were plotted using GraphPad Prism as TR-FRET ratio vs. ligand concentration and fit to sigmoidal dose response curve equation.
Exemplary compounds of the present disclosure were assayed as described above to assess agonism of REV-ERBα. Results of the FRET assay are shown in Table 2 below (A: EC50<100 nM; B: EC50 100 nM-1000 nM; C: EC50>1000 nM; NT: not tested).

REV-ERBα LBD, sequence (P20393 with tags, fused parts or gaps DEL324-422): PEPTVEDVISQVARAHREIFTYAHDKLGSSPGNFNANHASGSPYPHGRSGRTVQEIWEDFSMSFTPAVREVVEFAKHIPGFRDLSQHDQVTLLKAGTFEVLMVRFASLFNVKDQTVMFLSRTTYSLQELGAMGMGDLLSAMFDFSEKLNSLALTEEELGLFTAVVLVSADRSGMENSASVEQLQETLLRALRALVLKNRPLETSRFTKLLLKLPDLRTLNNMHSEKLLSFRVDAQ
REV-ERBα LBD, sequence (Q9Y618 2335-2356 partner limits assumed): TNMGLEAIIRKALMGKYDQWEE

SMILES | EC50 [nM]
CC(C)(C)Cn1cc([C@H](NS(=O)(=O)C2CC2)C(F)F)c2cc(F)c(-c3cc(F)cnc3C#N)cc21 [Compound 96, (S)—N-(1-(6-(2-cyano-5-fluoropyridin-3-yl)-5-fluoro-1-neopentyl-1H-indol-3-yl)-2,2-difluoroethyl)cyclopropanesulfonamide] | < 100
CC(C)(C)Cn1cc([C@H](NS(=O)(=O)C2CC2)C(F)F)c2ccc(-c3cccnc3C#N)cc21 [Compound 49, (S)—N-(1-(6-(2-cyanopyridin-3-yl)-1-neopentyl-1H-indol-3-yl)-2,2-difluoroethyl)cyclopropanesulfonamide] | < 100
CC(C)(C)Cn1cc([C@H](NS(=O)(=O)C2CC2)C(F)F)c2ccc(-c3ncc(F)cc3C(F)(F)F)cc21 [Compound 53, (S)—N-(2,2-difluoro-1-(6-(5-fluoro-3-(trifluoromethyl)pyridin-2-yl)-1-neopentyl-1H-indol-3-yl)ethyl)cyclopropanesulfonamide] | < 100
CN(C)S(=O)(=O)N[C@@H](c1cn(CC(C)(C)C)c2cc(-c3ccccc3C(F)(F)F)ccc12)C(F)F [Compound 21] | < 100
O=S(=O)(N[C@@H](c1cn(C2CCC2)c2cc(-c3ncc(F)cc3C(F)(F)F)c(F)cc12)C(F)F)C1CC1 [Compound 156, (S)—N-(1-(1-cyclobutyl-5-fluoro-6-(5-fluoro-3-(trifluoromethyl)pyridin-2-yl)-1H-indol-3-yl)-2,2-difluoroethyl)cyclopropanesulfonamide] | < 100
CC(NS(=O)(=O)C1CC1)c1cn(CC(C)(C)C)c2cc(-c3cnccc3C#N)c(F)cc12 (single isomer, unassigned) [Compound 32, (R or S) N-(1-(6-(4-cyanopyridin-3-yl)-5-fluoro-1-neopentyl-1H-indol-3-yl)ethyl)cyclopropanesulfonamide] | < 100
CC(C)(C)Cn1cc([C@H](NS(=O)(=O)C2CCC2)C(F)F)c2ccc(-c3cccnc3C(F)(F)F)cc21 [Compound 14, (S)—N-(2,2-difluoro-1-(1-neopentyl-6-(2-(trifluoromethyl)pyridin-3-yl)-1H-indol-3-yl)ethyl)cyclobutanesulfonamide] | < 100
CC(C)(C)Cn1cc([C@H](NS(=O)(=O)C2CC2)C(F)F)c2cc(F)c(-c3cnc(C#N)cc3C(F)(F)F)cc21 [Compound 133, (S)—N-(1-(6-(6-cyano-4-(trifluoromethyl)pyridin-3-yl)-5-fluoro-1-neopentyl-1H-indol-3-yl)-2,2-difluoroethyl)cyclopropanesulfonamide] | < 100
CC(NS(=O)(=O)C1CC1)c1cn(CC(C)(C)C)c2cc(-c3ccc(F)cn3)c(F)cc12 (centres unmarked) [Compound 64, N-(1-(5-fluoro-6-(5-fluoropyridin-2-yl)-1-neopentyl-1H-indol-3-yl)ethyl)cyclopropanesulfonamide] | 100 to 1000
CC(NS(=O)(=O)C1CC1)c1cn(CC(C)(C)C)c2cc(C3CCOC3)c(F)cc12 (centres unmarked) [Compound 34, N-(1-(5-fluoro-1-neopentyl-6-(tetrahydrofuran-3-yl)-1H-indol-3-yl)ethyl)cyclopropanesulfonamide] | < 100
CC(C)(C)Cn1cc([C@H](NS(=O)(=O)C2CC2)C(F)(F)F)c2cc(F)c(-c3ccccc3OC(F)(F)F)cc21 [Compound 5, (S)—N-(2,2,2-trifluoro-1-(5-fluoro-1-neopentyl-6-(2-(trifluoromethoxy)phenyl)-H-indol-3-yl)ethyl)cyclopropanesulfonamide] | < 100
CN(C)S(=O)(=O)N[C@@H](c1cn(CC(C)(C)C)c2cc(-c3cccnc3C(F)(F)F)c(F)cc12)C(F)F [Compound 43] | < 100
CC(C)(C)Cn1cc([C@H](NS(=O)(=O)C2CC2)C(F)(F)F)c2ccc(-c3cc(F)ccc3C(F)(F)F)cc21 [Compound 3, (S)—N-(2,2,2-trifluoro-1-(6-(5-fluoro-2-(trifluoromethyl)phenyl)-1-neopentyl-1H-indol-3-yl)ethyl)cyclopropanesulfonamide] | < 100
Cc1cnc(C(F)(F)F)c(-c2cc3c(cc2F)c([C@H](NS(=O)(=O)C2CC2)C(F)F)cn3CC(C)(C)C)c1 [Compound 141, (S)—N-(2,2-difluoro-1-(5-fluoro-6-(5-methyl-2-(trifluoromethyl)pyridin-3-yl)-1-neopentyl-1H-indol-3-yl)ethyl)cyclopropanesulfonamide] | < 100
Cc1ccnc(C(F)F)c1-c1ccc2c([C@H](NS(=O)(=O)C3CC3)C(F)F)cn(CC(C)(C)C)c2c1 [Compound 128, (S)—N-(1-(6-(2-(difluoromethyl)-4-methylpyridin-3-yl)-1-neopentyl-1H-indol-3-yl)-2,2-difluoroethyl)cyclopropanesulfonamide] | < 100
CC(C)(C)Cn1cc([C@H](NS(=O)(=O)C2CC2)C(F)F)c2ccc(-c3ccncc3C(F)(F)F)cc21 [Compound 102, (S)—N-(2,2-difluoro-1-(1-neopentyl-6-(3-(trifluoromethyl)pyridin-4-yl)-1H-indol-3-yl)ethyl)cyclopropanesulfonamide] | < 100
CC(NS(=O)(=O)C1CC1)c1cn(CC(C)(C)C)c2cc(C3CCOCC3)c(F)cc12 (centres unmarked) [Compound 35] | < 100
CN(C)S(=O)(=O)N[C@@H](c1cn(CC(C)(C)C)c2cc(-c3ccccc3C(F)(F)F)c(F)cc12)C(F)F [Compound 54] | < 100

More lines, now with the values ahead:

EC50 [nM] | SMILES
< 100 | CC(NS(=O)(=O)C1CC1)c1cn(CC(C)(C)C)c2cc(-c3ncccc3F)c(F)cc12 (centres unmarked) [Compound 59, N-[1-[1-(2,2-dimethylpropyl)-5-fluoro-6-(3-fluoro-2-pyridyl)indol-3-yl]ethyl]cyclopropanesulfonamide]
< 100 | CC(C)(C)Cn1cc([C@H](NS(=O)(=O)C2CC2)C(F)F)c2cc(F)c(-c3ncc(Cl)cc3F)cc21 [Compound 92, (S)—N-(1-(6-(5-chloro-3-fluoropyridin-2-yl)-5-fluoro-1-neopentyl-1H-indol-3-yl)-2,2-difluoroethyl)cyclopropanesulfonamide]
< 100 | CC(C)(C)Cn1cc([C@H](NS(=O)(=O)C2CC2)C(F)F)c2cc(F)c(-c3ncc(F)cc3F)cc21 [Compound 91, (S)—N-(1-(6-(3,5-difluoropyridin-2-yl)-5-fluoro-1-neopentyl-1H-indol-3-yl)-2,2-difluoroethyl)cyclopropanesulfonamide]
< 100 | CC(C)(C)Cn1cc([C@H](NS(=O)(=O)C2CC2)C(F)F)c2cc(F)c(-c3c(C#N)cccc3C(F)F)cc21 [Compound 109, N-((1S)-1-(6-(2-cyano-6-(difluoromethyl)phenyl)-5-fluoro-1-neopentyl-1H-indol-3-yl)-2,2-difluoroethyl)cyclopropanesulfonamide]
< 100 | CC(NS(=O)(=O)C1CC1)c1cn(CC(C)(C)C)c2cc(-c3cccnc3C(F)F)c(F)cc12 (centres unmarked) [Compound 65, N-(1-(6-(2-(difluoromethyl)pyridin-3-yl)-5-fluoro-1-neopentyl-1H-indol-3-yl)ethyl)cyclopropanesulfonamide]
< 100 | CC(C)(C)Cn1cc([C@H](NS(=O)(=O)C2CC2)C(F)F)c2cc(F)c(-c3cc(F)cnc3C(F)F)cc21 [Compound 123, (S)—N-(1-(6-(2-(difluoromethyl)-5-fluoropyridin-3-yl)-5-fluoro-1-neopentyl-1H-indol-3-yl)-2,2-difluoroethyl)cyclopropanesulfonamide]
< 100 | CC(C)(C)Cn1cc([C@H](NS(=O)(=O)C2CC2)C(F)F)c2ccc(-c3c(F)cccc3C(F)F)cc21 [Compound 104, (S)—N-(1-(6-(2-(difluoromethyl)-6-fluorophenyl)-1-neopentyl-1H-indol-3-yl)-2,2-difluoroethyl)cyclopropanesulfonamide]
< 100 | CC(C)(C)Cn1cc([C@H](NS(=O)(=O)C2CC2)C(F)F)c2cc(F)c(-c3ccc(F)cc3C(F)F)cc21 [Compound 117, (S)—N-(1-(6-(2-(difluoromethyl)-4-fluorophenyl)-5-fluoro-1-neopentyl-1H-indol-3-yl)-2,2-difluoroethyl)cyclopropanesulfonamide]
< 100 | CC(C)(C)Cn1cc([C@H](NS(=O)(=O)C2CC2)C(F)F)c2cc(F)c(-c3ncc(F)cc3C(F)F)cc21 [Compound 134, (S)—N-(1-(6-(3-(difluoromethyl)-5-fluoropyridin-2-yl)-5-fluoro-1-neopentyl-1H-indol-3-yl)-2,2-difluoroethyl)cyclopropanesulfonamide]
< 100 | CC(C)(C)Cn1cc([C@H](NS(=O)(=O)C2CC2)C(F)F)c2cc(F)c(-c3ncccc3C(F)F)cc21 [Compound 111, (S)—N-(1-(6-(3-(difluoromethyl)pyridin-2-yl)-5-fluoro-1-neopentyl-1H-indol-3-yl)-2,2-difluoroethyl)cyclopropanesulfonamide]
< 100 | CC(C)(C)Cn1cc([C@H](NS(=O)(=O)C2CC2)C(F)F)c2cc(F)c(-c3ncccc3C3CC3)cc21 [Compound 115, (S)—N-(1-(6-(3-cyclopropylpyridin-2-yl)-5-fluoro-1-neopentyl-1H-indol-3-yl)-2,2-difluoroethyl)cyclopropanesulfonamide]
